In patent US20170172994A1, “COMPOSITIONS AND METHODS FOR TREATING BACTERIAL INFECTIONS” (WOCKHARDT LIMITED, priority 2013, published 2017):
Like-named read-outs stand apart in the source and are kept apart here.

What was measured:
[1] = system: MDR P. mirabilis G 186 producing NDM & TEM β-lactamases; assay: Time kill study at MFC and MSC; format: cell-based; conditions: for Bacterial count: Cefepime 8 mcg/ml (MFC), Compound of Formula (III) 0.25 mcg/ml (MSC), Imepenem 8 mcg/ml
Procedure: (§1) The synergistic killing effect of the combinations according to invention was studied by performing time kill studies. In a typical time kill study, the freshly grown cultures were diluted to the required cell density (initial starting inoculum) in Cation adjusted Muller Hinton broth medium (BD, USA). The antibacterial agents (either alone or in combination) at the required concentrations were added into the culture-containing medium. The samples were incubated under shaking condition (120 rpm) at 37° C. Enumeration of viable bacterial count was done every 2 hour by diluting in normal saline and plating on to the Tryptic Soya Agar plates (BD, USA). The plates were incubated for 24 hours to arrive at the viable bacterial count. The results are expressed in terms of Log CFU per ml. In general, the decrease of 1 Log CFU/ml, corresponds to 90% killing of bacteria. Similarly, 2 Log CFU/ml reductions indicates to 99% killing of bacteria and 3 Log CFU/ml reductions is equal to 99.9% killing of bacteria.

[2] = system: MDR Klebsiella pneumoniae B 88 producing NDM, SHV & TEM beta-lactamases; assay: Time kill study at MFC and MSC; format: cell-based; conditions: for Bacterial count: Cefepime 8 mcg/ml (MFC), Compound of Formula (III) 0.12 mcg/ml (MSC), Imepenem 8 mcg/ml
Procedure: as §1

[3] = system: ESBL enzymes from K. pneumoniae S48 producing Metalo betalactamase (NDM4) and Class A (CTX-M, SHV, TEM) beta-lactamase; assay: Beta-lactamase stability study (crude enzyme extract, then drug diffusion assay on E. coli ATCC 25922); format: biochemical; conditions: for Inhibition zone diameter after treatment with beta-lactamase enzyme: 40 μg/ml, zone on E. coli ATCC 25922
Procedure: (§2) Next, the beta-lactamase stability of some of these compounds was evaluated. In a typical stability study, ESBL enzymes from K. pneumoniae S48 producing Metalo betalactamase (NDM4) and Class A (CTX-M, SHV, TEM) beta-lactamase were isolated from freshly grown culture by 5 repetitive cycles of freeze and thaw in liquid nitrogen. […] After the stipulated incubation duration, the test compounds were extracted from the reaction mixture by the addition of 0.5 ml of Acetonitrile in 1:1 ratio (final concentration of test compound—40 μg/ml) and centrifuged at 12000 rpm for 2 min to separate precipitated protein. The activity of test compounds was measured from the supernatant by performing microbiological drug diffusion assay. For drug diffusion assay, Muller-Hinton Agar (MHA) seeded with E. coli ATCC 25922 was poured on to a bioassay plate placed on a flat surface and allowed to solidify. Appropriate concentration of the standalone and enzyme treated test compound dilutions were added to 6 mm wells cut with the help of a borer. The antibacterial activity of the test compounds was measured in terms of zones of inhibition appearing after 18-24 hours of incubation at 37° C. Measurement of diameter of zone of inhibition was undertaken to the nearest whole value with the help of ruler.

[4] = system: K. pneumonia S48 expressing multiple ESBLs including MBL (NDM4) and Class A (CTX-M, SHV, TEM); format: cell-based, K. pneumoniae; conditions: Cefepime 8 μg/ml, Compound of Formula (III) 2 μg/ml, Clavulanic acid 2 μg/ml, Mecillinam 2 μg/ml, Imipenem 8 μg/ml
Procedure: Log phase cultures were diluted to desired inoculums in flasks with MHB, containing various drug concentrations. Flasks were incubated at 35° C. in orbital shaker with rotational speed of 125 rpm. […] Plates were incubated for 24 hours at 35° C. and colonies were enumerated to determine the colony forming units (CFU) per ml volume.

[5] = system: P. mirabilis G 186; assay: Minimum filamentation / spheroplasting concentration; conditions: P. mirabilis G 186 (NDM, TEM); minimum spheroplasting concentration
From the text: The term “MSC” as used herein refers to minimum spheroplasting concentration, which is the minimum concentration of an antibacterial agent at which about 80% of bacterial cells covert into spheroplasts.
The term “MFC” as used herein refers to minimum filamentation concentration, which is the minimum concentration of an antibacterial agent at which about 80% of bacterial cells get elongated to form filament like structures.

[6] = system: E. coli ATCC 25922; assay: Microbiological drug diffusion assay, standalone compounds in absence of beta-lactamase enzymes; format: cell-based; conditions: Escherichia coli, ATCC25922, 40 μg/ml, no beta-lactamase, read-out: Inhibition zone diameter
Procedure: as §2

## O=C(NNC(=O)[C@@H]1CC[C@@H]2CN1C(=O)N2OS(=O)(=O)O)[C@@H]1CCCNC1 [Compound of Formula (III), trans-(2S,5R)-sulfuric acid mono-[2-(N′—[(R)-piperidin-3-carbonyl]-hydrazino Carbonyl)-7-oxo-1,6-diaza-bicyclo[3.2.1]oct-6-yl] Ester]
[1]; 0 hour
  Bacterial count: 6.58 Log10 CFU/ml
[1]; 2 hours
  Bacterial count: 7.2 Log10 CFU/ml
[1]; 4 hours
  Bacterial count: 7.7 Log10 CFU/ml
[1]; 6 hours
  Bacterial count: 8.43 Log10 CFU/ml
[1]; 8 hours
  Bacterial count: 8.6 Log10 CFU/ml
[1]; P. mirabilis G 186, at MFC and MSC concentration, Table 14
  Antibacterial activity (in words): did not exhibit antibacterial activity
[2]; 0 hour
  Bacterial count: 6.14 Log10 CFU/ml
[2]; 2 hours
  Bacterial count: 7.3 Log10 CFU/ml
[2]; 4 hours
  Bacterial count: 7.8 Log10 CFU/ml
[2]; 6 hours
  Bacterial count: 7.9 Log10 CFU/ml
[2]; 8 hours
  Bacterial count: 8.5 Log10 CFU/ml
[2]; Klebsiella pneumoniae B 88, at MFC and MSC concentration, Table 13
  Antibacterial activity (in words): did not exhibit antibacterial activity
[3]; 0 hour incubation at 37° C.
  Inhibition zone diameter after treatment with beta-lactamase enzyme: 16 mm
[3]; 1 hour incubation at 37° C.
  Inhibition zone diameter after treatment with beta-lactamase enzyme: 16 mm
[3]; 2 hours incubation at 37° C.
  Inhibition zone diameter after treatment with beta-lactamase enzyme: 16 mm
[3]; 24 hours incubation at 37° C.
  Inhibition zone diameter after treatment with beta-lactamase enzyme: 16 mm
[3]; carbapenem hydrolyzing metallo beta-lactamase, up to 24 hours
  Stability to beta-lactamase (in words): stable and not inactivated by the beta-lactamase
[4]; 0 hour
  Bacterial count: 5.5 log (CFU/ml)
[4]; 2 hours
  Bacterial count: 5.4 log (CFU/ml)
[4]; 4 hours
  Bacterial count: 3.5 log (CFU/ml)
[4]; 6 hours
  Bacterial count: 3.6 log (CFU/ml)
[5]
  MSC: 0.25 µg/mL
[6]; 0 hour
  zone of inhibition at 40 µg/mL: 16 mm
[6]; 1 hour
  zone of inhibition at 40 µg/mL: 16 mm
[6]; 2 hours
  zone of inhibition at 40 µg/mL: 16 mm
[6]; 24 hours
  zone of inhibition at 40 µg/mL: 16 mm
